Patent US8697877B2, “Oxyindole derivatives with motilin receptor agonistic activity” (RaQualia Pharma Inc., priority 2009, dated 2014)

biological target: T1, human motilin receptor (GPR38) (Homo sapiens, UniProt O43193); assay: GPR38 (Motilin Receptor) Functional Assay, NFAT-beta-lactamase reporter in CHO-K1 cells; type: cell-based; details: not given
T1 construct: expressed in transfected cells; host or cells: CHO-K1
Protocol: The potencies and efficacies of the compounds of this invention for GPR38 can be determined by reporter assay performed on the human cloned receptor as described herein.
GPR38 (Motilin Receptor) Functional Assay
A CHO-K1 cell line stably transfected NFAT-beta-lactamase reporter and human motilin receptor gene was used. The cells were cultured in culture medium (Dulbecco's modified eagle medium containing 10% fetal bovine serum, 1 mM sodium pyruvate, 0.1 mM MEM nonessential amino acids, 25 mM HEPES buffer, 50 units/mL penicillin, 50 microg/mL streptomycin, 100 microg/mL zeocin, and 500 microg/mL G418). The cells were harvested with 0.05% trypsin EDTA and centrifuged. The cell pellets were resuspended in the culture medium and plated into a black/clear bottom 384-well plate at a density of 8000 cells per well, then incubated at 37° C. with 5% CO2 for over night (about 20 hours). On the day of assay, the culture medium was aspirated and 20 microL of assay medium (Dulbecco's modified eagle medium containing 100 units/mL penicillin and 100 microg/mL streptomycin) was added to each well, then the cell plates were placed in incubator at 37° C. with 5% CO2 for 1.5 hours. Compounds were prepared in 100% DMSO and these were diluted to 5× of final concentration with assay buffer (Hanks balanced salt solution, 20 mM HEPES, and 0.1% BSA), then dispensed into 384-well plate (5 microL/well). After incubation at 37° C. with 5% CO2 for 4.5 hours, CCF4-AM loading solution (Invitrogen Corp.) was added to each well. After incubation for 2 hours at room temperature, fluorescence intensities were measured by using plate reader FDSS (Hamamatsu Photonics K. K.) with excitation 400 nm, emission 465 nm/540 nm. Agonistic activity (EC50) was calculated from the sigmoidal dose-response curve using GraphPad Prism software (GraphPad Software, Inc.).

T1 sequence (O43193 whole entry): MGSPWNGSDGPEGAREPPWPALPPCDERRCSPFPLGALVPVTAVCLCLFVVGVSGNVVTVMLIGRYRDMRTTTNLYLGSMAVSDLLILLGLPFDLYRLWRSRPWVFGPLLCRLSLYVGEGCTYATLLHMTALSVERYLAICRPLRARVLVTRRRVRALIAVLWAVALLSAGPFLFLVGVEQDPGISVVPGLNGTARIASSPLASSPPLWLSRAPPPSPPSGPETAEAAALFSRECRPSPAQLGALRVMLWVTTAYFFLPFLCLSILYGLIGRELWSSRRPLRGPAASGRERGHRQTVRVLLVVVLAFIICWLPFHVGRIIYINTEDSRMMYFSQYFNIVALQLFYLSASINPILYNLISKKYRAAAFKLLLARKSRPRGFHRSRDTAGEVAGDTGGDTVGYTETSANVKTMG

Row | Structure (SMILES) | EC50
1 | CC1(C)C(=O)N(C2CCN(C(=O)[C@H](CCc3ccccc3)NC(=O)NC[C@@H]3CCCNC3)CC2)c2ccccc21 [Example 61, 1-((S)-1-(4-(3,3-dimethyl-2-oxo-indolin-1-yl)piperidin-1-yl)-1-oxo-4-phenylbutan-2-yl)-3-((R)-piperidin-3-ylmethyl)urea] | ≤ 10 nM
2 | CC(C)(N)CNC(=O)N[C@@H](CCc1ccccc1)C(=O)N1CCC(N2C(=O)C(C)(C)c3ccccc32)CC1 [Example 62, (S)-1-(2-amino-2-methylpropyl)-3-(1-(4-(3,3-dimethyl-2-oxoindolin-1-yl)piperidin-1-yl)-1-oxo-4-phenyl-butan-2-yl)urea] | ≤ 10 nM
3 | CN(C1CC1)[C@H]1CCN(C(=O)N[C@@H](CCc2ccccc2)C(=O)N2CCC(N3C(=O)C(C)(C)c4ccccc43)CC2)C1 [Example 63, (S)-3-(cyclopropyl(methyl)amino)-N-((S)-1-(4-(3,3-dimethyl-2-oxo-indolin-1-yl)piperidin-1-yl)-1-oxo-4-phenylbutan-2-yl)pyrrolidine-1-carboxamide] | ≤ 10 nM
4 | CC1(C)C(=O)N(C2CCN(C(=O)[C@H](CCc3ccccc3)NC(=O)NCCN3CCCC3)CC2)c2ccccc21 [Example 64, (S)-1-(1-(4-(3,3-dimethyl-2-oxo-indolin-1-yl)piperidin-1-yl)-1-oxo-4-phenylbutan-2-yl)-3-(2-(pyrrolidin-1-yl)ethyl)urea] | ≤ 10 nM
5 | CN(C)CCNC(=O)N[C@@H](CCc1ccccc1)C(=O)N1CCC(N2C(=O)C(C)(C)c3ccccc32)CC1 [Example 65, (S)-1-(1-(4-(3,3-dimethyl-2-oxo-indolin-1-yl)piperidin-1-yl)-1-oxo-4-phenylbutan-2-yl)-3-(2-(dimethyl-amino)ethyl)urea] | ≤ 10 nM
6 | CN(C)[C@H]1CCN(C(=O)N[C@@H](CCc2ccccc2)C(=O)N2CCC(N3C(=O)C(C)(C)c4ccccc43)CC2)C1 [Example 67, (S)—N—((S)-1-(4-(3,3-dimethyl-2-oxoindolin-1-yl)piperidin-1-yl)-1-oxo-4-phenylbutan-2-yl)-3-(dimethylamino)pyrrolidine-1-carboxamide] | ≤ 10 nM
7 | CN1CCC[C@H]1CNC(=O)N[C@@H](CCc1ccccc1)C(=O)N1CCC(N2C(=O)C(C)(C)c3ccccc32)CC1 [Example 68, 1-((S)-1-(4-(3,3-dimethyl-2-oxo-indolin-1-yl)piperidin-1-yl)-1-oxo-4-phenylbutan-2-yl)-3-(((S)-1-methylpyrrolidin-2-yl)methyl)urea] | ≤ 10 nM
8 | CN1CCC(C)(NC(=O)N[C@@H](CCc2ccccc2)C(=O)N2CCC(N3C(=O)C(C)(C)c4ccccc43)CC2)CC1 [Example 69, (S)-1-(1-(4-(3,3-dimethyl-2-oxo-indolin-1-yl)piperidin-1-yl)-1-oxo-4-phenylbutan-2-yl)-3-(1,4-dimethylpiperidin-4-yl)urea] | ≤ 10 nM
9 | CN[C@H]1CCN(C(=O)N[C@@H](CCc2ccccc2)C(=O)N2CCC(N3C(=O)C(C)(C)c4cc(F)ccc43)CC2)C1 [Example 70, (S)—N—((S)-1-(4-(5-fluoro-3,3-dimethyl-2-oxoindolin-1-yl)piperidin-1-yl)-1-oxo-4-phenylbutan-2-yl)-3-(methylamino)pyrrolidine-1-carboxamide] | ≤ 10 nM
10 | CC1(C)C(=O)N(C2CCN(C(=O)[C@H](CCc3ccccc3)NC(=O)NC[C@@H]3CCCN3)CC2)c2ccc(F)cc21 [Example 71, 1-((S)-1-(4-(5-fluoro-3,3-dimethyl-2-oxoindolin-1-yl)piperldin-1-yl)-1-oxo-4-phenylbutan-2-yl)-3-((S)-pyrrolidin-2-ylmethyl)urea] | ≤ 10 nM
11 | CC1(NC(=O)N[C@@H](CCc2ccccc2)C(=O)N2CCC(N3C(=O)C(C)(C)c4cc(F)ccc43)CC2)CCNCC1 [Example 72] | ≤ 10 nM
12 | CC1(C)C(=O)N(C2CCN(C(=O)[C@H](Cc3ccccc3C(F)(F)F)NC(=O)C3CCNCC3)CC2)c2ccccc21 [Example 78, (S)-N-(1-(4-(3,3-dimethyl-2-oxoindolin-1-yl)piperidin-1-yl)-1-oxo-3-(2-(trifluoro-methyl)phenyl)propan-2-yl)piperidine-4-carboxamide] | ≤ 10 nM
13 | CC1(C)C(=O)N(C2CCN(C(=O)[C@H](Cc3ccccc3Cl)NC(=O)C3CCNCC3)CC2)c2ccccc21 [Example 79, (S)-N-(3-(2-chlorophenyl)-1-(4-(3,3-dimethyl-2-oxo-indolin-1-yl)piperidin-1-yl)-1-oxopropan-2-yl) piperidine-4-carboxamide] | ≤ 10 nM
14 | CC1(C)C(=O)N(C2CCN(C(=O)[C@H](Cc3ccccc3)NC(=O)[C@@H]3CCCNC3)CC2)c2ccccc21 [Example 82, (R)-N-((S)-1-(4-(3,3-dimethyl-2-oxoindolin-1-yl)piperidin-1-yl)-1-oxo-3-phenylpropan-2-yl) piperidine-3-carboxamide] | ≤ 10 nM
15 | CC1(C)C(=O)N(C2CCN(C(=O)[C@H](Cc3ccccc3F)NC(=O)[C@@H]3CCCNC3)CC2)c2ccccc21 [Example 83, (R)-N-((S)-1-(4-(3,3-dimethyl-2-oxoindolin-1-yl)piperidin-1-yl)-3-(2-fluorophenyl)-1-oxo-propan-2-yl)piperidine-3-carboxamide] | ≤ 10 nM
16 | CC1(C)C(=O)N(C2CCN(C(=O)[C@H](Cc3ccccc3C(F)(F)F)NC(=O)[C@@H]3CCCNC3)CC2)c2ccccc21 [Example 85, (R)-N-((S)-1-(4-(3,3-dimethyl-2-oxoindolin-1-yl)piperidin-1-yl)-1-oxo-3-(2-(trifluoromethyl)phenyl)propan-2-yl) piperidine-3-carboxamide] | ≤ 10 nM
17 | CC1(C)C(=O)N(C2CCN(C(=O)[C@H](Cc3ccccc3Cl)NC(=O)[C@@H]3CCCNC3)CC2)c2ccccc21 [Example 86, (R)-N-((S)-3-(2-chloro-phenyl)-1-(4-(3,3-dimethyl-2-oxoindolin-1-yl)piperidin-1-yl)-1-oxo-propan-2-yl)piperidine-3-carboxamide] | ≤ 10 nM
18 | CC1(C)C(=O)N(C2CCN(C(=O)[C@H](Cc3ccc(Cl)cc3)NC(=O)[C@@H]3CCCNC3)CC2)c2ccccc21 [Example 87, (R)-N-((S)-3-(4-chloro-phenyl)-1-(4-(3,3-dimethyl-2-oxoindolin-1-yl)piperidin-1-yl)-1-oxopropan-2-yl)piperidine-3-carboxamide] | ≤ 10 nM
19 | CN[C@H]1CCN(C(=O)N[C@@H](Cc2ccccc2C(F)(F)F)C(=O)N2CCC(N3C(=O)C(C)(C)c4ccccc43)CC2)C1 [Example 92, (S)-N-((S)-1-(4-(3,3-dimethyl-2-oxoindolin-1-yl)piperidin-1-yl)-1-oxo-3-(2-(trifluoromethyl)phenyl)propan-2-yl)-3-(methylamino)pyrrolidine-1-carboxamide] | ≤ 10 nM
20 | CN[C@H]1CCN(C(=O)N[C@@H](Cc2ccccc2Cl)C(=O)N2CCC(N3C(=O)C(C)(C)c4ccccc43)CC2)C1 [Example 93, (S)-N-((S)-3-(2-chloro-phenyl)-1-(4-(3,3-dimethyl-2-oxoindolin-1-yl)piperidin-1-yl)-1-oxopropan-2-yl)-3-(methylamino)pyrrolidine-1-carboxamide] | ≤ 10 nM
21 | CN[C@H]1CCN(C(=O)N[C@@H](Cc2ccc(Cl)cc2)C(=O)N2CCC(N3C(=O)C(C)(C)c4ccccc43)CC2)C1 [Example 94, (S)-N-((S)-3-(4-chloro-phenyl)-1-(4-(3,3-dimethyl-2-oxoindolin-1-yl)piperidin-1-yl)-1-oxopropan-2-yl)-3-(methylamino)pyrrolidine-1-carboxamide] | ≤ 10 nM

same assay, conditions: ED50 (nM), Table 15; functional activity toward GPR38 (motilin receptor), (S) versus (R) amino acid linker

Row | Structure (SMILES) | EC50
22 | CC1(C)C(=O)N(C2CCN(C(=O)[C@@H](CCc3ccccc3)NC(=O)[C@@H]3CCCNC3)CC2)c2ccccc21 [Example 98] | 6210 nM
23 | CN[C@H]1CCN(C(=O)N[C@H](CCc2ccccc2)C(=O)N2CCC(N3C(=O)C(C)(C)c4ccccc43)CC2)C1 [Example 99, (S)—N—((R)-1-(4-(3,3-dimethyl-2-oxoindolin-1-yl)piperidin-1-yl)-1-oxo-4-phenylbutan-2-yl)-3-(methylamino)pyrrolidine-1-carboxamide] | 488 nM
